Measurements published in PubChem BioAssay (NCI).
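Where inhibition never reached the appropriate level, the endpoint shown equals the highest concentration tested. Otherwise, values were interpolated linearly from a five-concentration, 48-hour dose response in 96-well plates. GI50 = concentration required for 50% inhibition of growth. TGI: concentration producing complete growth inhibition.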

Tests used:
Assay in all cases: growth of human tumour cells (NCI), 48 h
SW-620 colon = tested on: SW-620 colon
IGROV1 ovarian = tested on: IGROV1 ovarian
SNB-19 CNS = tested on: SNB-19 CNS
HT29 colon = tested on: HT29 colon
HOP-62 NSCLC = tested on: HOP-62 NSCLC
MALME-3M melanoma = tested on: MALME-3M melanoma
KM12 colon = tested on: KM12 colon
SK-MEL-2 melanoma = tested on: SK-MEL-2 melanoma
UACC-257 melanoma = tested on: UACC-257 melanoma
SK-OV-3 ovarian = tested on: SK-OV-3 ovarian
SN12C renal = tested on: SN12C renal
MCF7 breast = tested on: MCF7 breast
OVCAR-5 ovarian = tested on: OVCAR-5 ovarian
UO-31 renal = tested on: UO-31 renal
BT-549 breast = tested on: BT-549 breast
SF-268 CNS = tested on: SF-268 CNS
HCT-116 colon = tested on: HCT-116 colon
SF-539 CNS = tested on: SF-539 CNS
DU-145 prostate = tested on: DU-145 prostate
HOP-92 NSCLC = tested on: HOP-92 NSCLC
SK-MEL-28 melanoma = tested on: SK-MEL-28 melanoma
EKVX NSCLC = tested on: EKVX NSCLC
HCT-15 colon = tested on: HCT-15 colon
NCI-H460 lung = tested on: NCI-H460 lung
CCRF-CEM leukemia = tested on: CCRF-CEM leukemia
MDA-MB-435 = tested on: MDA-MB-435
COLO 205 colon = tested on: COLO 205 colon
K-562 leukemia = tested on: K-562 leukemia
MOLT-4 leukemia = tested on: MOLT-4 leukemia
SK-MEL-5 melanoma = tested on: SK-MEL-5 melanoma
U251 CNS = tested on: U251 CNS
RPMI-8226 leukemia = tested on: RPMI-8226 leukemia
UACC-62 melanoma = tested on: UACC-62 melanoma
786-0 renal = tested on: 786-0 renal
OVCAR-4 ovarian = tested on: OVCAR-4 ovarian
CAKI-1 renal = tested on: CAKI-1 renal
HS 578T breast = tested on: HS 578T breast
RXF 393 renal = tested on: RXF 393 renal
LOX IMVI melanoma = tested on: LOX IMVI melanoma
SNB-75 CNS = tested on: SNB-75 CNS
T-47D breast = tested on: T-47D breast
SF-295 CNS = tested on: SF-295 CNS
NCI-H522 lung = tested on: NCI-H522 lung
A549 NSCLC = tested on: A549 NSCLC
NCI-H226 lung = tested on: NCI-H226 lung
SR leukemia = tested on: SR leukemia
MDA-MB-231 breast = tested on: MDA-MB-231 breast
ACHN renal = tested on: ACHN renal
OVCAR-8 ovarian = tested on: OVCAR-8 ovarian
HCC-2998 colon = tested on: HCC-2998 colon
PC-3 prostate = tested on: PC-3 prostate
M14 melanoma = tested on: M14 melanoma
NCI/ADR-RES ovarian = tested on: NCI/ADR-RES ovarian
HL-60(TB) leukemia = tested on: HL-60(TB) leukemia
TK-10 renal = tested on: TK-10 renal
A498 renal = tested on: A498 renal
OVCAR-3 ovarian = tested on: OVCAR-3 ovarian

COc1cc(OC)c(S(N)(=O)=O)cc1C(=O)/C=C/c1ccccc1
GI50 (SW-620 colon): 2.68 µM
TGI (SW-620 colon): 13.4 µM
GI50 (IGROV1 ovarian): 9.74 µM
TGI (IGROV1 ovarian): 27.6 µM
GI50 (SNB-19 CNS): 14 µM
TGI (SNB-19 CNS): 28.5 µM
GI50 (HT29 colon): 4.02 µM
TGI (HT29 colon): 13.8 µM
GI50 (HOP-62 NSCLC): 9.51 µM
TGI (HOP-62 NSCLC): 22.6 µM
GI50 (MALME-3M melanoma): 13.9 µM
TGI (MALME-3M melanoma): 29.3 µM
GI50 (KM12 colon): 3.31 µM
TGI (KM12 colon): 18.5 µM
GI50 (SK-MEL-2 melanoma): 12.6 µM
TGI (SK-MEL-2 melanoma): 26.5 µM
GI50 (UACC-257 melanoma): 9.96 µM
TGI (UACC-257 melanoma): 21.8 µM
GI50 (SK-OV-3 ovarian): 14.4 µM
TGI (SK-OV-3 ovarian): 27.6 µM
GI50 (SN12C renal): 3.49 µM
TGI (SN12C renal): 16.9 µM
GI50 (MCF7 breast): 0.97 µM
TGI (MCF7 breast): 14.2 µM
GI50 (OVCAR-5 ovarian): 13.2 µM
TGI (OVCAR-5 ovarian): 26.7 µM
GI50 (UO-31 renal): 4.76 µM
TGI (UO-31 renal): 19 µM
GI50 (BT-549 breast): 2.65 µM
TGI (BT-549 breast): 14.1 µM
GI50 (SF-268 CNS): 5.88 µM
TGI (SF-268 CNS): 22.9 µM
GI50 (HCT-116 colon): 1.49 µM
TGI (HCT-116 colon): 14.8 µM
GI50 (SF-539 CNS): 2.44 µM
TGI (SF-539 CNS): 8.98 µM
GI50 (DU-145 prostate): 1.88 µM
TGI (DU-145 prostate): 13.9 µM
GI50 (HOP-92 NSCLC): 2.06 µM
TGI (HOP-92 NSCLC): 12 µM
GI50 (SK-MEL-28 melanoma): 12.5 µM
TGI (SK-MEL-28 melanoma): 25.3 µM
GI50 (EKVX NSCLC): 14.2 µM
TGI (EKVX NSCLC): 27.6 µM
GI50 (HCT-15 colon): 3.55 µM
TGI (HCT-15 colon): 20.1 µM
GI50 (NCI-H460 lung): 1.95 µM
TGI (NCI-H460 lung): 12.5 µM
GI50 (CCRF-CEM leukemia): 3.93 µM
TGI (CCRF-CEM leukemia): 67.2 µM
GI50 (MDA-MB-435): 2.12 µM
TGI (MDA-MB-435): 12 µM
GI50 (COLO 205 colon): 10.6 µM
TGI (COLO 205 colon): 24 µM
GI50 (K-562 leukemia): 1.5 µM
TGI (K-562 leukemia): 22.3 µM
GI50 (MOLT-4 leukemia): 10.1 µM
TGI (MOLT-4 leukemia): 43.1 µM
GI50 (SK-MEL-5 melanoma): 17.6 µM
TGI (SK-MEL-5 melanoma): 32.4 µM
GI50 (U251 CNS): 2.92 µM
TGI (U251 CNS): 15.2 µM
GI50 (RPMI-8226 leukemia): 2.98 µM
TGI (RPMI-8226 leukemia): 21.4 µM
GI50 (UACC-62 melanoma): 12.2 µM
TGI (UACC-62 melanoma): 26.9 µM
GI50 (786-0 renal): 4.82 µM
TGI (786-0 renal): 20.8 µM
GI50 (OVCAR-4 ovarian): 11.8 µM
TGI (OVCAR-4 ovarian): 25.7 µM
GI50 (CAKI-1 renal): 1.86 µM
TGI (CAKI-1 renal): 15.6 µM
GI50 (HS 578T breast): 5.89 µM
TGI (HS 578T breast): 43.3 µM
GI50 (RXF 393 renal): 1.9 µM
TGI (RXF 393 renal): 7.74 µM
GI50 (LOX IMVI melanoma): 0.335 µM
TGI (LOX IMVI melanoma): 12.4 µM
GI50 (SNB-75 CNS): 2.08 µM
TGI (SNB-75 CNS): 7.32 µM
GI50 (T-47D breast): 2.09 µM
TGI (T-47D breast): 12.1 µM
GI50 (SF-295 CNS): 15.7 µM
TGI (SF-295 CNS): 30.3 µM
GI50 (NCI-H522 lung): 6.56 µM
TGI (NCI-H522 lung): 20.8 µM
GI50 (A549 NSCLC): 10.5 µM
TGI (A549 NSCLC): 22.7 µM
GI50 (NCI-H226 lung): 10 µM
TGI (NCI-H226 lung): 26.4 µM
GI50 (SR leukemia): 1.73 µM
TGI (SR leukemia): 24.8 µM
GI50 (MDA-MB-231 breast): 11.9 µM
TGI (MDA-MB-231 breast): 27 µM
GI50 (ACHN renal): 7 µM
TGI (ACHN renal): 20.1 µM
GI50 (OVCAR-8 ovarian): 11.3 µM
TGI (OVCAR-8 ovarian): 24.1 µM
GI50 (HCC-2998 colon): 12.5 µM
TGI (HCC-2998 colon): 26.2 µM
GI50 (PC-3 prostate): 5.95 µM
TGI (PC-3 prostate): 20.6 µM
GI50 (M14 melanoma): 7.51 µM
TGI (M14 melanoma): 23.8 µM
GI50 (NCI/ADR-RES ovarian): 15.5 µM
TGI (NCI/ADR-RES ovarian): 57.6 µM
GI50 (HL-60(TB) leukemia): 2.27 µM
TGI (HL-60(TB) leukemia): 23.2 µM
GI50 (TK-10 renal): 12.9 µM
TGI (TK-10 renal): 25.8 µM
GI50 (A498 renal): 16.9 µM
TGI (A498 renal): 30.7 µM
GI50 (OVCAR-3 ovarian): 2.71 µM
TGI (OVCAR-3 ovarian): 13.1 µM
